Here are results for three compounds from patent US20250154169A1, “COMPOUNDS AND METHODS FOR MODULATING SPLICING” (REMIX THERAPEUTICS INC., priority 2021, published 2025).

Each structure is given as a SMILES string.

One experiment deals with HTT. Put plainly: Protein abundance, HiBit-assay system (Promega), HTT. The class given is cell-based. The settings on record: Table 6; HiBiT-modified K562 cells, 24 hours. An excerpt: In some embodiments, a compound of Formula (I) or (II) or a pharmaceutically acceptable salt thereof, e.g., as described herein, modulates the expression of a target protein (e.g., HTT or MYB) in a reference cell or sample. In an embodiment, a compound of Formula (I) or (II) or a pharmaceutically acceptable salt thereof, e.g., as described herein, increases the expression of a target protein (e.g., HTT or MYB) in a reference cell or sample. In an embodiment, a compound of Formula (I) or (II) or a pharmaceutically acceptable salt thereof, e.g., as described herein, decreases the expression of a target protein (e.g., HTT or MYB) in a reference cell or sample. The effect of an exemplary compound of Formula (I) or (II) on protein abundance may be measured using a standard assay for measuring protein abundance, such as the HiBit-assay system (Promega). In this assay, percent response for each respective cell line may be as calculated at each compound concentration as follows: % response=100*(S−PC)/(NC−PC). For the normalized response at each concentration, a four-parameter logistical regression may be fit to the data and the response may be interpolated at the 50% value to determine a concentration for protein abundance at 50% (IC50) an untreated control. In an embodiment, a compound of Formula (I) or (II) or a pharmaceutically acceptable salt thereof, e.g., as described herein, has a protein abundance response less than 100 nM. In an embodiment, a compound of Formula (I) or (II) or a pharmaceutically acceptable salt thereof, e.g., as described herein, has a protein abundance response between 100-1000 nM. In an embodiment, a compound of Formula (I) or (II) or a pharmaceutically acceptable salt thereof, e.g., as described herein, has a protein abundance response greater than 1000 nM. In an embodiment, a compound of Formula (I) or (II) or a pharmaceutically acceptable salt thereof, e.g., as described herein, has a protein abundance response greater than 10 uM. In an embodiment, a compound of Formula (I) or (II) or a pharmaceutically acceptable salt thereof, e.g., as described herein, modulates the protein abundance of a target protein by about 1%, 5%, 10%, 15%, 20%, 25%, 30%, 35%, 40%, 45%, 50%, 55%, 60%, 65%, 70%, 75%, 80%, 85%, 90%, 95%, 99% or more, e.g., compared with a reference compound.

The subject of another experiment is MYB mRNA. Put plainly: Splicing RT-qPCR assay, MYB canonical (CJ) and alternative (AJ) junction mRNA. The settings on record: Homo sapiens, 24 h, A673 or K562 cells, 24 hours compound treatment, RT-qPCR; for AC50: read-out: MYB AJ (AC50, increase in alternative junction mRNA); for IC50: read-out: MYB CJ (IC50, decrease in canonical junction mRNA). The class given is cell-based, human. A digest of the protocol: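 Read-out is the abundance of canonical-junction versus new alternative-exon-junction mRNA, determined by real-time qPCR after cDNA synthesis and normalized to a housekeeping gene. It is measured in A673 or K562 cells exposed to compounds for 24 h, top dose 10 uM.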
(Real-time PCR tracks product formation cycle by cycle.)

Another experiment concerns K562 cells. Put plainly: Cell Titer Glo 2.0 cell viability assay, K562. In kind it is cell-based. The note with it: Homo sapiens, 72 hours incubation. (In ATP-based viability assays light output follows the ATP content of the culture.)

Method for K562 cells: Compounds described herein were screened for toxicity in K562 (human chronic myelogenous leukemia) and SH-SY5Y (human neuroblastoma) cells using a Cell Titer Glo 2.0 assay.
• Promega CellTiter-Glo® 2.0 Cell Viability Assay (cat #G9241) • Corning 384-well TC-treated microplates (cat #3570)
Cells were plated at 500 cells/well (K562 cells) in 45 μL of IMDM supplemented with 10% FBS in a 384-well opaque plate. Wells containing only medium were used as a blank control. Test compounds (e.g., compounds of Formula (I) or (II)) were first serially diluted in DMSO then diluted 1:100 with EIDM+10% FBS. The final concentration of DMSO was 0.1% in each well. The cells were incubated for 72 hours at 37° C. and 5% CO2 before assaying with Cell Titer Glo 2.0 reagent.

For the compound `Cc1cn2cc(NC(=O)c3ccc(N4CC[C@@H](NCc5cnc(Cl)nc5)C4)c4cn(C)nc34)cc(F)c2n1` [Compound 573, 4-[(3R)-3-{[(2-chloropyrimidin-5-yl)methyl]amino}pyrrolidin-1-yl]-N-{8-fluoro-2-methylimidazo[1,2-a]pyridin-6-yl}-2-methylindazole-7-carboxamide], the 50% inhibitory concentration (IC50) (in general, the concentration that gives 50% inhibition) with HTT was above 10 µM. In the experiment with MYB mRNA, the AC50 (commonly the concentration at which the activity in the assay is half-maximal) was in the range of 0.1 to 1 µM and the IC50 lay in the range of 0.1 to 1 µM. Besides, the concentration for 50% growth inhibition (GI50) (as a rule, the concentration giving 50% growth inhibition) with K562 cells was 1 to 10 µM.
As to `Cc1cn2cc(NC(=O)c3ccc(N4CCC(C)(NC(C)C)C4)c4cn(C)nc34)cc(F)c2n1` (stereo not drawn) [Compound 574], the results for the IC50 in the experiment with HTT and in the experiment with MYB mRNA were above 10 µM and 0.1 to 1 µM, respectively. In the experiment with MYB mRNA, the AC50 was 0.1 to 1 µM. Besides, the GI50 in the experiment on K562 cells lay in the range of 0.1 to 1 µM.
Consider `CCn1cc2c(N3CCNCC3)ccc(C(=O)Nc3cc(F)c4ncccc4c3)c2n1` [Compound 575], for which, in the experiment with HTT, the IC50 fell in the range of 1 to 10 µM. Besides, in the experiment on MYB mRNA, the concentration at half-maximal activity (AC50) is above 10 µM and the IC50 was above 10 µM. The compound further came in with a 50% growth inhibitory concentration (GI50) in the experiment with K562 cells of 0.1 to 1 µM.
